PMC5078040 (Oncotarget, 2016)

Columns and labels:
PI3Kδ = PI3Kδ (Homo sapiens, UniProt O00329); assay: Kinase kinetic assay (ATP competition, ADP-Glo); format: biochemical; details: varied ATP concentration
Protocol: Kinetic analyses of PI3KCD were performed using a luminometric kinase assay varying the concentration of ATP using the ADP-Glo reagents (Promega). […] After 60 min incubation at RT, varied concentrations of ATP, 0.1mM substrate PIP2:PS were added and incubated for 60 min at 37°C. The overall rate of reaction was determined as the slope of the decreasing phase of the reaction. Each data point was collected in duplicate and kinetic parameters were obtained using Prism 5.0 (GraphPad Software, San Diego, CA).

[1] = target: T1, ABL1(M351T)-phosphorylated (Homo sapiens, UniProt P00519, M351T); assay: KinomeScan; format: binding; details: 1uM
T1 construct: purchased DiscoveRx KINOMEscan

[2] = target: T2, ABL1(Q252H)-nonphosphorylated (Homo sapiens, UniProt P00519, Q252H); assay: KinomeScan; format: binding; details: 1uM
T2 construct: purchased DiscoveRx KINOMEscan

ADCK3 = target: T3, ADCK3 (Homo sapiens, UniProt Q8NI60); assay: KinomeScan; format: binding; details: 1uM
T3 construct: purchased DiscoveRx KINOMEscan

CDC2L5 = target: T4, CDC2L5 (Homo sapiens, UniProt Q14004); assay: KinomeScan; format: binding; details: 1uM
T4 construct: purchased DiscoveRx KINOMEscan

CDK8 = target: T5, CDK8 (Homo sapiens, UniProt P49336); assay: KinomeScan; format: binding; details: 1uM
T5 construct: purchased DiscoveRx KINOMEscan

DMPK = target: T6, DMPK (Homo sapiens, UniProt Q09013); assay: KinomeScan; format: binding; details: 1uM
T6 construct: purchased DiscoveRx KINOMEscan

DMPK2 = target: T7, DMPK2 (Homo sapiens, UniProt Q6DT37); assay: KinomeScan; format: binding; details: 1uM
T7 construct: purchased DiscoveRx KINOMEscan

EPHA5 = target: T8, EPHA5 (Homo sapiens, UniProt P54756); assay: KinomeScan; format: binding; details: 1uM
T8 construct: purchased DiscoveRx KINOMEscan
T8 sequence (P54756 25-1037): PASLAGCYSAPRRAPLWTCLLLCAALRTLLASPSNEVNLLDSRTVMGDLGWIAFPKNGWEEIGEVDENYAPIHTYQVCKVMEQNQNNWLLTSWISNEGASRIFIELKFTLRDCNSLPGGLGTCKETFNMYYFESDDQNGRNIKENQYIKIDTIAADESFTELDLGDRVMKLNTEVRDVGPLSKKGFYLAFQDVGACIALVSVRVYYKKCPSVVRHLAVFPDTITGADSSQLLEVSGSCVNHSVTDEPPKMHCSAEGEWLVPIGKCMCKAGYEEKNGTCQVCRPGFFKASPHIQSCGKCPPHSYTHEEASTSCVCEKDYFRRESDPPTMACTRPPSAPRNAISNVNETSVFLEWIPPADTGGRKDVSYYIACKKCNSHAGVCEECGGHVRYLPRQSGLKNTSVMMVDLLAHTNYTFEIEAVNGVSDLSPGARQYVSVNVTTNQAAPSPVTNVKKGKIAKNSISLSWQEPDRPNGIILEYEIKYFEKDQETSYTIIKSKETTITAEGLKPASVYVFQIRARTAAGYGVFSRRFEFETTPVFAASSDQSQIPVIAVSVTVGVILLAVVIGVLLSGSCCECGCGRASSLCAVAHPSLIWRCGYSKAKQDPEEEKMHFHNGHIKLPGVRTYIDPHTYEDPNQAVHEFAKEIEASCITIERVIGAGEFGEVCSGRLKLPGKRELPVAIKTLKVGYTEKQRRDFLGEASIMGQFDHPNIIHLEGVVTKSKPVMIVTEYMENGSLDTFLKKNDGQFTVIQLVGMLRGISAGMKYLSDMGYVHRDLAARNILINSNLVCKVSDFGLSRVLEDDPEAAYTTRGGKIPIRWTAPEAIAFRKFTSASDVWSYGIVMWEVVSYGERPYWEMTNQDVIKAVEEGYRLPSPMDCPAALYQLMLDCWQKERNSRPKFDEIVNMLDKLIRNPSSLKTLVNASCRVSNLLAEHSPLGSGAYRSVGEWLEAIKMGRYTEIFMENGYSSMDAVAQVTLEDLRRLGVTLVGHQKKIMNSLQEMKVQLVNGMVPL

FER = target: T9, FER (Homo sapiens, UniProt P16591); assay: KinomeScan; format: binding; details: 1uM
T9 construct: purchased DiscoveRx KINOMEscan
T9 sequence (P16591 whole entry): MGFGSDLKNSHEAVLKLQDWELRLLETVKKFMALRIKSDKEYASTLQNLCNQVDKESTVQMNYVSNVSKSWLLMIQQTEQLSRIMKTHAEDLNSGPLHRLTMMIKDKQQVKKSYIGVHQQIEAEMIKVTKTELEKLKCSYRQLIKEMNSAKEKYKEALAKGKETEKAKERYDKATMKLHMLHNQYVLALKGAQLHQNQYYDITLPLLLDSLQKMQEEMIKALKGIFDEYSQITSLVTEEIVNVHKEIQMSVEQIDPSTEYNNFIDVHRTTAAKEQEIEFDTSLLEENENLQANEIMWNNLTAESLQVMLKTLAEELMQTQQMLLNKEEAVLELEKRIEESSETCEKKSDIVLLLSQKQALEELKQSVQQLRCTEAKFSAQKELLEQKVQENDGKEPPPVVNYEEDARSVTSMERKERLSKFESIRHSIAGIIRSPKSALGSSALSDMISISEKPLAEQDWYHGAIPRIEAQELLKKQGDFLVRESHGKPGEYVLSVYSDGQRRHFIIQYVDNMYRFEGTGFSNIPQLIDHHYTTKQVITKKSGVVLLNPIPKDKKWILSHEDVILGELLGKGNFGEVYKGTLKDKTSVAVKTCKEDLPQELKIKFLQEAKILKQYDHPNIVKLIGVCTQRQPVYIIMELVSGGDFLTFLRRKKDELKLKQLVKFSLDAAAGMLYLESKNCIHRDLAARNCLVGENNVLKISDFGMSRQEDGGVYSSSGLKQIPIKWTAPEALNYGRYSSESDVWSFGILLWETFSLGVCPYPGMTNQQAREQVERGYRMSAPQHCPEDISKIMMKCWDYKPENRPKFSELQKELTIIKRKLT

FGFR3 = target: T10, FGFR3 (Homo sapiens, UniProt P22607); assay: KinomeScan; format: binding; details: 1uM
T10 construct: purchased DiscoveRx KINOMEscan

ICK = target: T11, ICK (Homo sapiens, UniProt Q9UPZ9); assay: KinomeScan; format: binding; details: 1uM
T11 construct: purchased DiscoveRx KINOMEscan

KIT(D816V) = target: T12, KIT(D816V) (Homo sapiens, UniProt P10721, D816V); assay: KinomeScan; format: binding; details: 1uM
T12 construct: purchased DiscoveRx KINOMEscan
T12 sequence (P10721 26-976 D816V): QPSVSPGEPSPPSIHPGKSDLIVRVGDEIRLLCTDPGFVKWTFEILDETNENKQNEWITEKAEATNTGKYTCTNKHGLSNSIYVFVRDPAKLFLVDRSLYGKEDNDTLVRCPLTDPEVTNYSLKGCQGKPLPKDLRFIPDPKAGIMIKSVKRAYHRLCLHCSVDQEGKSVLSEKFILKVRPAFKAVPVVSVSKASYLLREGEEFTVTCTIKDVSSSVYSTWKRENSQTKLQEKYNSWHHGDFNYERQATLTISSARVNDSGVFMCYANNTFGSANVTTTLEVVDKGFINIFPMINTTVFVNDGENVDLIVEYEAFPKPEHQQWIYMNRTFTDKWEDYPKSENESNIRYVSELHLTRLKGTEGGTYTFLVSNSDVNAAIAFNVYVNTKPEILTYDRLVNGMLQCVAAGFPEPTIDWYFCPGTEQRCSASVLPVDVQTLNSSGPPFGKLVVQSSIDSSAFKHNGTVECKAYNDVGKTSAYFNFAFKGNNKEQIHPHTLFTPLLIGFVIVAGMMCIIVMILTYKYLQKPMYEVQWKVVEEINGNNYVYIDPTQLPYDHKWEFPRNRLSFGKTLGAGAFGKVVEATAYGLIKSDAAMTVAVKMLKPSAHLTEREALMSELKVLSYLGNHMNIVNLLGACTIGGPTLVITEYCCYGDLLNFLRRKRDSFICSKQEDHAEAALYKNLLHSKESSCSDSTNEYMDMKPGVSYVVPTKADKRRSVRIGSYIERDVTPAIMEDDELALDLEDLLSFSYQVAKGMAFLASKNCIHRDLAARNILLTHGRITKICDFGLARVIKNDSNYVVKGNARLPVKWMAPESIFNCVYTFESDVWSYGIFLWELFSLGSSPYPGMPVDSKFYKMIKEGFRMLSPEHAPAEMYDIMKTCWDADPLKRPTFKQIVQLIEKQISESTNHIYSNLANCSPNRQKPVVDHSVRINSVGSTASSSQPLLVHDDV

KIT(L576P) = target: T13, KIT(L576P) (Homo sapiens, UniProt P10721, L576P); assay: KinomeScan; format: binding; details: 1uM
T13 construct: purchased DiscoveRx KINOMEscan
T13 sequence (P10721 26-976 L576P): as the sequence (P10721 26-976 D816V) above, with L551P, V791D counted along it

KIT-autoinhibited = target: T14, KIT-autoinhibited (Homo sapiens, UniProt P10721); assay: KinomeScan; format: binding; details: 1uM
T14 construct: purchased DiscoveRx KINOMEscan
T14 sequence (P10721 26-976): as the sequence (P10721 26-976 D816V) above, with V791D counted along it

LCK = target: T15, LCK (Homo sapiens, UniProt P06239); assay: KinomeScan; format: binding; details: 1uM
T15 construct: purchased DiscoveRx KINOMEscan

MAK = target: T16, MAK (Homo sapiens, UniProt P20794); assay: KinomeScan; format: binding; details: 1uM
T16 construct: purchased DiscoveRx KINOMEscan
T16 sequence (P20794 whole entry): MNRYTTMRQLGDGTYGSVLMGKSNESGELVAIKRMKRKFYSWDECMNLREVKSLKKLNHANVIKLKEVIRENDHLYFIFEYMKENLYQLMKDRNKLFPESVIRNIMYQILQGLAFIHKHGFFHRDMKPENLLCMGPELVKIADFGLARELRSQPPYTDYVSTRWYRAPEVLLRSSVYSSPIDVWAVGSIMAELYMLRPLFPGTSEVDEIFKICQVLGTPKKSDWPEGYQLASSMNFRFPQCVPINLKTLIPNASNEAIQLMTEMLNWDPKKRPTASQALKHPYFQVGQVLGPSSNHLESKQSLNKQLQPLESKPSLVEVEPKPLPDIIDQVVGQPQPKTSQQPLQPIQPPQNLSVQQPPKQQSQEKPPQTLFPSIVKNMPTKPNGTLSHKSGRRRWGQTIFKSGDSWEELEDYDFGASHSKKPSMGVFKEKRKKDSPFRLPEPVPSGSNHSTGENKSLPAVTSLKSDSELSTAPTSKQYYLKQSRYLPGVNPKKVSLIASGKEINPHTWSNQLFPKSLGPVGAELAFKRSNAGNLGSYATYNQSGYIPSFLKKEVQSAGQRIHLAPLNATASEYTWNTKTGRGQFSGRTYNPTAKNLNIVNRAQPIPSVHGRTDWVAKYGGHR

PFCDPK1(P.falciparum) = target: T17, PFCDPK1(P.falciparum) (Plasmodium falciparum, UniProt P62344); assay: KinomeScan; format: binding; details: 1uM
T17 construct: purchased DiscoveRx KINOMEscan

PIK3CB = target: T18, PIK3CB (Homo sapiens, UniProt P42338); assay: KinomeScan; format: binding; details: 1uM
T18 construct: purchased DiscoveRx KINOMEscan
T18 sequence (P42338 whole entry): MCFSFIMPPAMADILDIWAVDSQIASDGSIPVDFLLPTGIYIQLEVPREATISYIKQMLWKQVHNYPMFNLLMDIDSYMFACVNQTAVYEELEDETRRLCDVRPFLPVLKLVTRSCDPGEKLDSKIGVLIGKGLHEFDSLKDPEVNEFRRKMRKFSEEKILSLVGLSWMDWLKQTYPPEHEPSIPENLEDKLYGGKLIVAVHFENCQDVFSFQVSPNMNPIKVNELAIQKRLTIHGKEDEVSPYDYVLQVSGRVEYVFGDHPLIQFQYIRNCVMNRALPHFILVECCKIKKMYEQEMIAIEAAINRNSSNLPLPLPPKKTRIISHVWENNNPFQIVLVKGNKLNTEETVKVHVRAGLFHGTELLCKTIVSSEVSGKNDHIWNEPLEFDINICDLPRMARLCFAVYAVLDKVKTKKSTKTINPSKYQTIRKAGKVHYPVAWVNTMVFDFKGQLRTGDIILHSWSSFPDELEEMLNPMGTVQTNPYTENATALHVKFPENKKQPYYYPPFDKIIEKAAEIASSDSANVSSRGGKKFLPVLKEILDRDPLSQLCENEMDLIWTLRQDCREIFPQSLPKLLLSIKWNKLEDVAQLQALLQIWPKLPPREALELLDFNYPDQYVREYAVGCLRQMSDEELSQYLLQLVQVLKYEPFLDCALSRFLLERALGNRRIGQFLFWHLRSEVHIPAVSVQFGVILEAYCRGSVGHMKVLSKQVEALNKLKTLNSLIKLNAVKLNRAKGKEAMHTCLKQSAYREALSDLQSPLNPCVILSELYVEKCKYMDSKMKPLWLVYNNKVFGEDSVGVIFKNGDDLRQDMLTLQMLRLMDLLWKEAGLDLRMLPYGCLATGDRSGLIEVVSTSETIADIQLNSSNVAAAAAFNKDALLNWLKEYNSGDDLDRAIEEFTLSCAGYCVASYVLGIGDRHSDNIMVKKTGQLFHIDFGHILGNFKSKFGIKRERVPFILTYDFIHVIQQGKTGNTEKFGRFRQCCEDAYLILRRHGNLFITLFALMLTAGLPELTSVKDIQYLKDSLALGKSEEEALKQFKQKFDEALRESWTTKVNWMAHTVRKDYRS

PKAC-alpha = target: T19, PKAC-alpha (Homo sapiens, UniProt P17612); assay: KinomeScan; format: binding; details: 1uM
T19 construct: purchased DiscoveRx KINOMEscan

PKAC-beta = target: T20, PKAC-beta (Homo sapiens, UniProt P22694); assay: KinomeScan; format: binding; details: 1uM
T20 construct: purchased DiscoveRx KINOMEscan

PRKX = target: T21, PRKX (Homo sapiens, UniProt P51817); assay: KinomeScan; format: binding; details: 1uM
T21 construct: purchased DiscoveRx KINOMEscan
T21 sequence (P51817 whole entry): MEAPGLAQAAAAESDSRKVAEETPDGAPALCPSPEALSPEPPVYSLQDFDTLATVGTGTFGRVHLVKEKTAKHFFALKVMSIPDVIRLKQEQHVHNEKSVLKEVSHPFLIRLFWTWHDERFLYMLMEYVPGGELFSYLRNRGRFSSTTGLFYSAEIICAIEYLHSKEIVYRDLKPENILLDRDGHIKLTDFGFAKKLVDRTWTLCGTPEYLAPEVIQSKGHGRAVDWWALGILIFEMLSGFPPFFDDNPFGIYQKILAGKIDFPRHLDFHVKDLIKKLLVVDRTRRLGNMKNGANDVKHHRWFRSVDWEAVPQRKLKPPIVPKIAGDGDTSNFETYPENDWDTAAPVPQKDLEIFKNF

TNIK = target: T22, TNIK (Homo sapiens, UniProt Q9UKE5); assay: KinomeScan; format: binding; details: 1uM
T22 construct: purchased DiscoveRx KINOMEscan

TRKA = target: T23, TRKA (Homo sapiens, UniProt P04629); assay: KinomeScan; format: binding; details: 1uM
T23 construct: purchased DiscoveRx KINOMEscan

TYRO3 = target: T24, TYRO3 (Homo sapiens, UniProt Q06418); assay: KinomeScan; format: binding; details: 1uM
T24 construct: purchased DiscoveRx KINOMEscan

VRK2 = target: T25, VRK2 (Homo sapiens, UniProt Q86Y07); assay: KinomeScan; format: binding; details: 1uM
T25 construct: purchased DiscoveRx KINOMEscan

HEL = assay: Anti-proliferative assay; format: cell-based; details: Homo sapiens, AML-M6, 72 hours, CellTiter-Glo
Protocol: (§1) Cells were grown in 96-well culture plates (3000-4000/well). […] Cell proliferation was determined after treatment with compounds for 72 hours. Cell viability was measured using the CellTiter–Glo Assay Kit (Promega, USA), according to the manufacturer's instructions, and luminescence was measured in a multi-label reader (Envision, PerkinElmer, USA). Data were normalized to control groups (DMSO) and represented by the mean of three independent measurements with standard error <20%. GI50 values were calculated using Prism 5.0 (GraphPad Software, San Diego, CA).

HT = assay: Anti-proliferative assay; format: cell-based; details: Homo sapiens, B-cell lymphoma, 72 hours, CellTiter-Glo
Protocol: as §1

Hs 505T = assay: Anti-proliferative assay; format: cell-based; details: Homo sapiens, CLL, 72 hours, CellTiter-Glo
Protocol: as §1

MEC-1 = assay: Anti-proliferative assay; format: cell-based; details: Homo sapiens, MEC1; MEC-1, CLL; 72 hours, CellTiter-Glo
Protocol: as §1

MOLM-14 = assay: Anti-proliferative assay; format: cell-based; details: Homo sapiens; MOLM-14, AML-M5; 72 hours, CellTiter-Glo
Protocol: as §1

MV4-11 = assay: Anti-proliferative assay; format: cell-based; details: Homo sapiens; MV4-11, AML; 72 hours, CellTiter-Glo
Protocol: as §1

Namalwa = assay: Anti-proliferative assay; format: cell-based; details: Homo sapiens, Burrkit lymphoma, 72 hours, CellTiter-Glo
Protocol: as §1

OCI-AML-2 = assay: Anti-proliferative assay; format: cell-based; details: Homo sapiens, OCI-AML2; OCI-AML-2, AML-M4; 72 hours, CellTiter-Glo
Protocol: as §1

OCI-AML-3 = assay: Anti-proliferative assay; format: cell-based; details: Homo sapiens; OCI-AML-3, AML-M4; 72 hours, CellTiter-Glo
Protocol: as §1

U937 = assay: Anti-proliferative assay; format: cell-based; details: Homo sapiens, U-937; U937, AML; 72 hours, CellTiter-Glo
Protocol: as §1

Cc1nc(NC(=O)[C@@H](N)C(C)C)sc1-c1cnc(Cl)c(NS(=O)(=O)c2ccccc2)c1 [PI3KD-IN-015]
binding kinetics / mode of inhibition (PI3Kδ): ATP competitive inhibitor | KinomeScan ABL1(M351T)-phosphorylated [1]: 98 | KinomeScan ABL1(Q252H)-nonphosphorylated [2]: 100 | KinomeScan ADCK3 (ADCK3): 100 | KinomeScan CDC2L5 (CDC2L5): 92 | KinomeScan CDK8 (CDK8): 100 | KinomeScan DMPK (DMPK): 83 | KinomeScan DMPK2 (DMPK2): 100 | KinomeScan EPHA5 (EPHA5): 100 | KinomeScan FER (FER): 89 | KinomeScan FGFR3 (FGFR3): 100 | KinomeScan ICK (ICK): 95 | KinomeScan KIT(D816V) (KIT(D816V)): 100 | KinomeScan KIT(L576P) (KIT(L576P)): 83 | KinomeScan KIT-autoinhibited (KIT-autoinhibited): 100 | KinomeScan LCK (LCK): 100 | KinomeScan MAK (MAK): 72 | KinomeScan PFCDPK1(P.falciparum) (PFCDPK1(P.falciparum)): 100 | KinomeScan PIK3CB (PIK3CB): 0 | KinomeScan PKAC-alpha (PKAC-alpha): 96 | KinomeScan PKAC-beta (PKAC-beta): 87 | KinomeScan PRKX (PRKX): 95 | KinomeScan TNIK (TNIK): 95 | KinomeScan TRKA (TRKA): 96 | KinomeScan TYRO3 (TYRO3): 100 | KinomeScan VRK2 (VRK2): 91 | GI50 (HEL): > 10000 nM | GI50 (HT): 860 nM | GI50 (Hs 505T): > 10000 nM | GI50 (MEC-1): > 10000 nM | GI50 (MOLM-14): 2200 nM | GI50 (MV4-11): 1900 nM | GI50 (Namalwa): 1400 nM | GI50 (OCI-AML-2): 1800 nM | GI50 (OCI-AML-3): 3100 nM | GI50 (U937): 5100 nM
